According to patent US12060570B2, “Vector-free intracellular delivery by reversible permeabilisation” (Avectas Limited, priority 2016, dated 2024):

Legend:
Assay type in all cases: cell-based
Jurkat cells = assay: Delivery of fluorescently-labelled proteins to Jurkat monolayer on transwell insert, flow cytometry; conditions: soluporation
Experimental: In order to form a monolayer of suspension cells that would allow the cells to be presented optimally to the spray, a transwell insert system was used. Cells were seeded at 1×10^6 in 400 μl per insert and the media was removed by placing the transwell insert (Greiner bio-one; CAT #655640; 12 Well ThinCert; PET 0.4 μm) into a device that allowed a vacuum to be applied to the bottom of the insert (between −0.5 bar and −0.65 bar; see FIGS. 14A, B, C). Once the media was removed the remaining cells formed a monolayer to which the spray can be applied. Non-adherent cells such as PBMCs, primary T-cells, or a cell line, e.g., Jurkat T cells, were added to the insert system, the vacuum applied and the insert placed into a 12 well plate and sprayed with delivery solution (10 lid) containing test payload such as either fluorescently-labelled beta-lactoglobulin (BLG), bovine serum albumin (BSA) or ovalburnin (OVA). Stop solution (50 μl) was applied after a 2 minute incubation and 30 s later normal media (100 μl) was applied.

A549 cells [1] = assay: Resealing of plasma membrane after permeabilization, PI uptake by flow cytometry; conditions: delivery solution without cargo, PI 100 μg/ml, n=3
Experimental: It was noted that the delivery method was very gentle on cells with little if any cell death or damage evident. […] To examine the rate of recovery of the cell membrane after permeabilization, delivery solution was applied to A549 cells in the absence of cargo. At subsequent time points (0 to 182.5 min), this delivery solution was removed and 50 μl PBS containing propidium iodide (PI) (100 μg/ml) is added. After 2 min incubation, the PI solution was removed and the cells were harvested. PI uptake was analysed by flow cytometry. For basal levels of PI uptake, untreated cells received 50 μl PI in PBS. […] After 6 minutes there is no further uptake. Thus not only do the cells load within 2 minutes of exposure to the delivery solution, but the membrane has effectively recovered its integrity within 6 minutes of beginning the procedure.

A549 cells [2] = assay: Endocytosis inhibitor pretreatment, EGFP mRNA expression; conditions: n=3; for Expression of EGFP mRNA delivered by soluporation in the presence of inhibitor: pretreatment: Dynasore 4 mM, chloropromazine 20 μM, Nystatin 20 μg/ml, EIPA 100 μM
Experimental: To test the contribution of alternate uptake mechanisms such as active pathways and internalization in endocytotic vesicles, A549 cells were pretreated with Dynasore (4 mM) or chloropromazine (20 μM) to inhibit clathrin-mediated endocytosis or Nystatin (20 μg/ml) or EIPA (100 μM) to inhibit caveolar-mediated endocytosis and micropinocytosis respectively.

bovine serum albumin [BSA]
Expression levels (fluorescently-labelled protein) (Jurkat cells): 28.5%

CC[N+](C)(CC)CCC[n+]1c(-c2ccccc2)c2cc(N)ccc2c2ccc(N)cc21.[I-].[I-] [propidium iodide]
time post treatment over which cells remain permeable to PI before resealing (A549 cells [1]): ≤ 6 min

C[C@@H]1[C@H](O)[C@@H](C)/C=C/C=C/CC/C=C/C=C/C=C/C=C/C(O[C@H]2O[C@H](C)[C@@H](O)[C@H](N)[C@@H]2O)CC2O[C@](O)(CC(O)C(O)CCC(O)CC(O)CC(O)CC(=O)O[C@H]1C)CC(O)C2C(=O)O (some centres unmarked) [Nystatin]
Expression of EGFP mRNA delivered by soluporation in the presence of inhibitor (A549 cells [2]): remained unchanged

CN(C)CCCN1c2ccccc2Sc2ccc(Cl)cc21 [chloropromazine]
Expression of EGFP mRNA delivered by soluporation in the presence of inhibitor (A549 cells [2]): remained unchanged

O=C(N/N=C/c1ccc(O)c(O)c1)c1cc2ccccc2cc1O [Dynasore]
GFP expression in lipofected cells (Lipofectamine 2000) (A549 cells [2]; Dynasore treated): significantly reduced | Expression of EGFP mRNA delivered by soluporation in the presence of inhibitor (A549 cells [2]): remained unchanged

ovalbumin
Expression levels (fluorescently-labelled protein) (Jurkat cells): 15.3%

CCN(c1nc(N)c(C(=O)NC(=N)N)nc1Cl)C(C)C [EIPA]
Expression of EGFP mRNA delivered by soluporation in the presence of inhibitor (A549 cells [2]): remained unchanged
